Measurements from patent US9687431B2, “Use of isoleucine N-hexadecanoyl as a “volumizing” and/or “plumping” agent for human skin” (SOCIETE D'EXPLOITATION DE PRODUITS POUR LES INDUSTRIES …, priority 2009, dated 2017).
Marks after values point to notes of the source that are not given here.

Experiments:
Assay type in all cases: cell-based
[1] = system: normal human preadipocytes; experiment: Differentiation of normal human preadipocytes in depleted differentiation medium (Bodipy lipid droplet labeling, image analysis); conditions: 15 days
Experimental: Normal human preadipocytes resulting from abdominal surgical waste from a donor were cultured in monolayer until confluence in the presence of a culture medium comprising PBM-2 (Preadipocyte Basal Medium-2) supplied by the company Lonza, an amount of 10% by volume of FBS (Fetal Bovine Serum) for 100% of the volume of the culture medium, L-glutamine and gentamicin.
Their differentiation into adipocytes was induced by adding a “depleted” differentiation medium comprising a mixture of insulin, dexamethasone, IBMX (isobutyl methyl xanthine) and indomethacin, and used at a dilution rate of 1/10th with respect to a “standard” differentiation medium.
A differentiation phase is also carried out on human preadipocytes as described above and cultured in monolayers as described above, but in the presence of a “standard” differentiation medium, namely a nondiluted mixture of insulin, dexamethasone, IBMX (IsoButyl Methyl Xanthine) and indomethacin, so as to obtain a “control differentiated in standard medium”.
Once the maturity of the preadipocytes was reached, namely after 15 days following the induction described above, the cultures were rinsed with a PBS (Phosphate Buffered Saline) buffer and the intracytoplasmic lipid vesicles were labeled using a specific viable fluorescent probe, Bodipy (500 μg/ml). The nuclei of the differentiated preadipocytes were also labeled using a Hoechst reagent (bisbenzimide), which is also fluorescent, at a concentration of 2 μg/ml, sold by the company Sigma.
Three photographs per well were taken using a Zeiss Axiovert™ 25 inverted epifluorescence microscope fitted with an ×20 objective.
For each test of products tested, including controls, the images obtained with the inverted epifluorescence microscope are analyzed using the Lucia software, allowing quantification of the Bodipy fluorescent label, in order to carry out: • a measurement of the lipid droplet surface area (Sd), • a measurement of the number of differentiated cells (Nc), and • a measurement of the number of total cell nuclei (Nnc).
For each test, the level of adipocyte differentiation (D) is then calculated by relating the lipid droplet surface area to the number of total nuclei according to the following formula: (D)=(lipid droplet surface area)/(number of total cell nuclei).
The following will thus be calculated: • the level of adipocyte differentiation of the control differentiated in depleted medium (subsequently denoted Ddm); • the level of adipocyte differentiation of the control differentiated in standard or complete medium (subsequently denoted Dcm); • the level of adipocyte differentiation of the products tested (N-hexadecanoyl isoleucine, hexadecanoic acid, isoleucine, hexadecanoic acid/isoleucine mixture in a ratio by weight of 65/35) (subsequently denoted Dpt).
For each product tested, the following are then calculated:
a) the percentage restoration of adipocyte differentiation (subsequently denoted RAD) according to the following formula: RAD=[(Dpt−Ddm)/(Dcm−Ddm)]×100
b) the adipocyte surface area (AS) according to the following formula: (AS)=[(lipid droplet surface area Sd)/(number of differentiated cells Nc)]×100
c) the percentage increase in adipocyte surface area (subsequently denoted IAS) relative to the control treated with depleted medium according to the formula: IAS=[adipocyte surface area of the product (ASpt)/adipocyte surface area of the control treated with the depleted medium (ASdm)]×100.
A statistical analysis is then carried out on the data (D) and (AS) using a two-sided Student's test assuming unequal variances. Thus, the population of each of the experimental conditions tested for the parameters (D) and (AS) is compared with the population of the condition of differentiation in the presence of the depleted differentiation medium. An error threshold (p) is set at 5%.

[2] = system: human preadipocytes of passage R7; experiment: Adipocyte phenotype restoration in artificially aged (passage R7) preadipocytes, protocol 3; conditions: protocol 3: product present during culture and differentiation; 10 μg/ml on a dry extract basis
Description: (§1) The term “passage” or “subculturing” or “amplification” denotes here the operation, known to those skilled in the art, consisting in amplifying the cells in question successively by means of culture cycles. Thus, the term “preadipocytes of passage RO” denotes the preadipocytes which have undergone no passage operation as defined above. The term “preadipocytes of passage R1” denotes the preadipocytes which have undergone a single passage operation as defined above. The term “preadipocytes of passage R7” denotes the preadipocytes which have undergone 7 successive passage operations under identical operating conditions.
(§2) • i) Human preadipocytes of passage R1 were cultured in monolayer for 5 days until confluence. […]
The effect of the N-hexadecanoyl isoleucine on human preadipocytes of passage R7 is evaluated according to a variant of the procedure of protocol 2, the first step of which consists in culturing the human preadipocytes of passage R7 in a monolayer for 5 days until confluence in the presence of N-hexadecanoyl isoleucine. […]

[3] = system: human preadipocytes of passage R7; experiment: Adipocyte phenotype restoration in artificially aged (passage R7) preadipocytes, protocol 1 (Oil-Red-O, OD 540 nm); conditions: protocol 1: product present during differentiation; 10 μg/ml on a dry extract basis
Description: as §1, §2
The optical density thus measured for the young control is denoted “ODR1”. […]

[4] = system: human preadipocytes of passage R7; experiment: Adipocyte phenotype restoration in artificially aged (passage R7) preadipocytes, protocol 2; conditions: protocol 2: product present during 5-day culture until confluence; 10 μg/ml on a dry extract basis
Description: as §1, §2
The steps of sections a) and b) of protocol 1 are carried out using human preadipocytes of passage R1 and human preadipocytes of passage R7 so as to obtain a “young” control and an “aged” control and the associated optical densities ODR1 and ODR7. The effect of the N-hexadecanoyl isoleucine on human preadipocytes of passage R7 is evaluated according to a variant of the procedure of protocol 1, the first step of which consists in culturing the human preadipocytes of passage R7 in a monolayer for 5 days until confluence in the presence of N-hexadecanoyl isoleucine. […]

[5] = 1.7 μg/ml on a dry extract basis

SMILES	IAS (percentage increase in adipocyte surface area relative to control in depleted medium = 100%) [1, 5]	RAD (percentage restoration of adipocyte differentiation) [1, 5]	IAS (percentage increase in adipocyte surface area relative to control in depleted medium = 100%) ([1]; 3.3 μg/ml)	RAD (percentage restoration of adipocyte differentiation) ([1]; 3.3 μg/ml)	IAS (percentage increase in adipocyte surface area relative to control in depleted medium = 100%) ([1]; 6.5 μg/ml)	RAD (percentage restoration of adipocyte differentiation) ([1]; 6.5 μg/ml)	PRR (phenotype restoration rate) [2]	PRR (phenotype restoration rate) [3]	PRR (phenotype restoration rate) [4]
CC[C@H](C)[C@H](N)C(=O)O [Isoleucine, isoleucine]	57%	<10%	117%	<10%					
CCCCCCCCCCCCCCCC(=O)O [Hexadecanoic acid, hexadecanoic acid]			41%*	<10%	62%	<10%			
CCCCCCCCCCCCCCCC(=O)N[C@H](C(=O)O)[C@@H](C)CC [N-hexadecanoyl isoleucine]							30%*	16%*	17%*
